Measurements reported in US9957271B2, “Substituted bicyclic aza-heterocycles and analogues as sirtuin modulators” (GlaxoSmithKline, LLC, priority 2012, dated 2018).

Molecular target: T1, SIRT1 (Homo sapiens, UniProt Q96EB6)
T1 sequence (Q96EB6 1-747): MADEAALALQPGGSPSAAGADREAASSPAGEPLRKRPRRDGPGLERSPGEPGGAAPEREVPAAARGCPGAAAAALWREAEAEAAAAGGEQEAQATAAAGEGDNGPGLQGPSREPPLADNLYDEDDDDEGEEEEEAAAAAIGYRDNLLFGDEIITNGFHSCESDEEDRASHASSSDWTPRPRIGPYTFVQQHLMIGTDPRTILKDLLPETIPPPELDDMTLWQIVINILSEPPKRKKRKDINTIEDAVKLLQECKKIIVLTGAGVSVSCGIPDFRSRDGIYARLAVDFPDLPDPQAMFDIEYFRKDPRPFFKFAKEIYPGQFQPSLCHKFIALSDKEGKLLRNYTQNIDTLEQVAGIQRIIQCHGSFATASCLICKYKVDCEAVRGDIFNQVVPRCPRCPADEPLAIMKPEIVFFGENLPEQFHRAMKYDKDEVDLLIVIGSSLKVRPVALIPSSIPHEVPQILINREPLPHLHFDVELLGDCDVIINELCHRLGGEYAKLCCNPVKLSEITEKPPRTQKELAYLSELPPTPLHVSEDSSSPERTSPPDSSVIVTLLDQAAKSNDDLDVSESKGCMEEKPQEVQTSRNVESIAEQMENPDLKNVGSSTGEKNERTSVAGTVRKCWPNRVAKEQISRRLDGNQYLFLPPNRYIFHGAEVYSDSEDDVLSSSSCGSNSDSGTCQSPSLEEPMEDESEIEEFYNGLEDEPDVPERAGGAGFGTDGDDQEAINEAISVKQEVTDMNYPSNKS
Experiment: TAMRA based mass spectrometry assay of SIRT1 activity
Assay type: biochemical
Conditions: TAMRA peptide substrate; for TAMRA EC1.5: concentration giving 150% activation of SIRT1; for Emax: percent maximum fold activation, read-out: TAMRA % Fold Act
In short: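 Recombinant N-terminal His-tagged human SIRT1 (10 nM, E. coli) incubated 25 min at 25 °C with 0.5 μM 5TMR-labelled p53-derived acetyl-peptide and 120 μM βNAD+ in Tris-acetate pH 8 buffer with DTT and 0.05% BSA, compound at varying concentrations. Stopped with formic acid; deacetylated peptide or OAADPR measured by mass spectrometry relative to DMSO controls.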

Structure (SMILES) | TAMRA EC1.5 | Emax
Cc1nc2ccc(-c3ccccc3C(F)(F)F)nn2c1C(=O)Nc1ccncc1F [Compound 464] | A (EC1.5<1 μM) | ≥ 350%
Cc1nc2ccc(-c3ccccc3C(F)(F)F)nn2c1C(=O)Nc1ccc(F)cn1 [Compound 465] | A (EC1.5<1 μM) | ≥ 350%
Cc1nc2c(C)cc(-c3ccccc3C(F)(F)F)nn2c1C(=O)Nc1cncc(OC[C@H](O)CO)n1 [Compound 468] | A (EC1.5<1 μM) | ≥ 350%
Cc1nc2ccc(-c3ccccc3OC(F)(F)F)nn2c1C(=O)Nc1cccnn1 [Compound 470] | A (EC1.5<1 μM) | ≥ 350%
Cc1nc2ccc(-c3ccccc3OC(F)(F)F)nn2c1C(=O)Nc1cnccn1 [Compound 471] | A (EC1.5<1 μM) | ≥ 350%
Cc1nc2c(C)cc(-c3ccccc3C(F)(F)F)nn2c1C(=O)Nc1ccc(F)cn1 [Compound 474] | A (EC1.5<1 μM) | ≥ 350%
COc1nccc(NC(=O)c2c(C)nc3ccc(-c4ccccc4C(F)(F)F)nn23)n1 [Compound 476] | A (EC1.5<1 μM) | ≥ 350%
COc1nccc(NC(=O)c2c(C)nc3ccc(-c4ccccc4OC(F)(F)F)nn23)n1 [Compound 477] | A (EC1.5<1 μM) | ≥ 350%
Cc1nc2c(C)cc(-c3ccccc3OC(F)(F)F)nn2c1C(=O)Nc1cccnn1 [Compound 479] | A (EC1.5<1 μM) | ≥ 350%
Cc1nc(NC(=O)c2c(C)nc3c(C)cc(-c4ccccc4OC(F)(F)F)nn23)sc1C [Compound 482] | A (EC1.5<1 μM) | ≥ 350%
O=C(Nc1cccc(N2CCOCC2)n1)c1cnc2ccc(N3CC[C@@H](F)C3)nn12 [Compound 488] | B (EC1.5 1-25 μM) | ≥ 350%
Cc1cc(C)nc(NC(=O)c2cnc3ccc(N4CC[C@@H](F)C4)nn23)c1 [Compound 491] | B (EC1.5 1-25 μM) | < 350%
Cc1cc(C)nc(NC(=O)c2cnc3ccc(N4CCC(F)(F)C4)nn23)c1 [Compound 492] | B (EC1.5 1-25 μM) | < 350%
Cc1cc(C)nc(NC(=O)c2c(C)nc3c(C)cc(-c4ccccc4OC(F)(F)F)nn23)c1 [Compound 493] | A (EC1.5<1 μM) | ≥ 350%
Cc1nc2c(C)cc(-c3ccccc3OC(F)(F)F)nn2c1C(=O)Nc1ccncc1F [Compound 494] | A (EC1.5<1 μM) | ≥ 350%
Cc1nc2c(C)cc(-c3ccccc3OC(F)(F)F)nn2c1C(=O)Nc1ccc(F)cn1 [Compound 495] | A (EC1.5<1 μM) | < 350%

Structure (SMILES) | TAMRA EC1.5 | Emax
Cc1nc2ccc(-c3ccccc3OC(F)(F)F)nn2c1C(=O)Nc1ccncc1 [Compound 497] | A (EC1.5<1 μM) | ≥ 350%
Cc1nc2ccc(-c3ccccc3C(F)(F)F)nn2c1C(=O)Nc1ccccn1 [Compound 498] | A (EC1.5<1 μM) | ≥ 350%
Cc1cccc(NC(=O)c2cnn3ccc(-c4ccccc4C(F)(F)F)nc23)n1 [Compound 500] | A (EC1.5<1 μM) | ≥ 350%
Cc1ccnc(NC(=O)c2cnn3ccc(-c4ccccc4C(F)(F)F)nc23)c1 [Compound 501] | A (EC1.5<1 μM) | ≥ 350%
Cc1cc(C)nc(NC(=O)c2cnn3ccc(-c4ccccc4C(F)(F)F)nc23)c1 [Compound 502] | A (EC1.5<1 μM) | ≥ 350%
Cc1cc(NC(=O)c2cnn3ccc(-c4ccccc4C(F)(F)F)nc23)nc(C)n1 [Compound 503] | A (EC1.5<1 μM) | ≥ 350%
Cc1cc(NC(=O)c2cnn3ccc(-c4ccccc4C(F)(F)F)nc23)cc(C)n1 [Compound 504] | A (EC1.5<1 μM) | ≥ 350%
O=C(Nc1nccs1)c1cnn2ccc(-c3ccccc3C(F)(F)F)nc12 [Compound 506] | A (EC1.5<1 μM) | ≥ 350%
Cc1nc(NC(=O)c2cnn3ccc(-c4ccccc4C(F)(F)F)nc23)sc1C [Compound 509] | A (EC1.5<1 μM) | ≥ 350%
CN(C)[C@H]1CCN(c2ccc3ncc(C(=O)Nc4cccc(N5CCOCC5)n4)n3n2)C1 [Compound 510] | B (EC1.5 1-25 μM) | < 350%
Cc1cc(C)nc(NC(=O)c2cnc3ccc(N4CC[C@H](N(C)C)C4)nn23)c1 [Compound 512] | B (EC1.5 1-25 μM) | < 350%
Cc1cc(-c2ccccc2C(F)(F)F)nn2c(C(=O)Nc3ccncn3)cnc12 [Compound 515] | A (EC1.5<1 μM) | ≥ 350%
COc1nccc(NC(=O)c2cnn3ccc(-c4ccccc4C(F)(F)F)nc23)n1 [Compound 519] | A (EC1.5<1 μM) | ≥ 350%
O=C(Nc1cnn2ccc(-c3ccccc3C(F)(F)F)nc12)c1cccc(O)n1 [Compound 520] | B (EC1.5 1-25 μM) | < 350%
Cc1cccc(C(=O)Nc2cnn3ccc(-c4ccccc4C(F)(F)F)nc23)n1 [Compound 522] | A (EC1.5<1 μM) | ≥ 350%

Now from value to molecule:

TAMRA EC1.5 | Emax | Structure (SMILES)
A (EC1.5<1 μM) | ≥ 350% | Cc1cnc(C(=O)Nc2cnn3ccc(-c4ccccc4C(F)(F)F)nc23)s1 [Compound 525]
A (EC1.5<1 μM) | ≥ 350% | Cc1nc(C(=O)Nc2cnn3ccc(-c4ccccc4C(F)(F)F)nc23)c(C)s1 [Compound 526]
A (EC1.5<1 μM) | ≥ 350% | Cc1cc(NC(=O)c2cnc3c(C)cc(-c4ccccc4C(F)(F)F)nn23)cc(C)n1 [Compound 528]
A (EC1.5<1 μM) | ≥ 350% | O=C(Nc1ccncc1)c1cnn2ccc(-c3ccccc3OC(F)(F)F)nc12 [Compound 531]
A (EC1.5<1 μM) | ≥ 350% | O=C(Nc1cnccn1)c1cnn2ccc(-c3ccccc3OC(F)(F)F)nc12 [Compound 532]
A (EC1.5<1 μM) | ≥ 350% | O=C(Nc1cccc(N2CCOCC2)n1)c1cnn2ccc(-c3ccccc3OC(F)(F)F)nc12 [Compound 534]
A (EC1.5<1 μM) | ≥ 350% | O=C(Nc1cccc(N2CC3(COC3)C2)n1)c1cnc2ccc(-c3ccccc3C(F)(F)F)nn12 [Compound 537]
A (EC1.5<1 μM) | ≥ 350% | O=C(Nc1cccc(N2CC3(CCO3)C2)n1)c1cnc2ccc(-c3ccccc3C(F)(F)F)nn12 [Compound 538]
A (EC1.5<1 μM) | ≥ 350% | Cc1cccc(NC(=O)c2cnc3c(C)cc(-c4ccccc4C(F)(F)F)nn23)n1 [Compound 539]
A (EC1.5<1 μM) | ≥ 350% | Cc1cc(NC(=O)c2cnc3c(C)cc(-c4ccccc4C(F)(F)F)nn23)ccn1 [Compound 540]
A (EC1.5<1 μM) | ≥ 350% | COc1nccc(NC(=O)c2c(C)nc3c(C)cc(-c4ccccc4C(F)(F)F)nn23)n1 [Compound 543]
A (EC1.5<1 μM) | ≥ 350% | Cc1nc2c(C)cc(-c3ccccc3C(F)(F)F)nn2c1C(=O)Nc1cccc(N2CC3(CCO3)C2)n1 [Compound 544]
A (EC1.5<1 μM) | ≥ 350% | Cc1cc(-c2ccccc2C(F)(F)F)nn2c(C(=O)Nc3cccc(N4CC5(COC5)C4)n3)cnc12 [Compound 546]
A (EC1.5<1 μM) | ≥ 350% | Cc1nn2ccc(-c3ccccc3C(F)(F)F)nc2c1C(=O)Nc1ccncn1 [Compound 547]
A (EC1.5<1 μM) | ≥ 350% | Cc1nn2ccc(-c3ccccc3C(F)(F)F)nc2c1C(=O)Nc1ccccn1 [Compound 548]
A (EC1.5<1 μM) | ≥ 350% | Cc1nn2ccc(-c3ccccc3C(F)(F)F)nc2c1C(=O)Nc1cccc(CN2CCOCC2)n1 [Compound 550]
A (EC1.5<1 μM) | ≥ 350% | O=C(Nc1cccc(OC[C@H](O)CO)n1)c1cnc2ccc(-c3ccccc3C(F)(F)F)nn12 [Compound 553]
A (EC1.5<1 μM) | ≥ 350% | O=C(Nc1cccc(OC[C@@H](O)CO)n1)c1cnc2ccc(-c3ccccc3C(F)(F)F)nn12 [Compound 554]
A (EC1.5<1 μM) | ≥ 350% | O=C(Nc1cncc(OC[C@@H](O)CO)n1)c1cnc2ccc(-c3ccccc3C(F)(F)F)nn12 [Compound 556, (S)-N-(6-(2,3-dihydroxypropoxy)pyrazin-2-yl)-6-(2-(trifluoromethyl)phenyl)imidazo[1,2-b]pyridazine-3-carboxamide]
A (EC1.5<1 μM) | ≥ 350% | Cc1cc(NC(=O)c2cnc3ccc(-c4ccccc4C(F)(F)F)nn23)cc(OC[C@H](O)CO)n1 [Compound 557]
A (EC1.5<1 μM) | ≥ 350% | Cc1nn2ccc(-c3ccccc3C(F)(F)F)nc2c1C(=O)Nc1ccncc1 [Compound 560]
